# Results taken from patent publication US8436138B2, “Binder for C-reactive protein” (Modpro AB, priority 2006, dated 2013).
# Experiment: Stability in aqueous solution
# Assay type: physicochemical
# Conditions: acidic pH (0.1% TFA)
# Description: Commercially available aminohexanoic acid 2 was N,N-dimethylated^11 12 by an Eschweiler-Clarke-type procedure (treatment with formaldehyde and hydrogen/palladium/carbon), and the resulting product (3, 86%) was esterified by treatment with methanolic hydrogen chloride to give the methyl ester 4 (96%). Quartenarization was effected by reacting 4 with monomethoxytrityl-protected bromoethanol 1, forming derivative 5 (73%). Unprotected bromoethanol could also be reacted with 4, but the reaction yield was lower and the product was more difficult to detect and purify. Monomethoxytrityl protection conferred lipophilicity and TLC detectability (UV visible and acid stainable) to the crucial intermediate 5. Saponification of 5 with lithium hydroxide/water/t-butanol gave the corresponding acid 6 (95%), which was treated without isolation with p-nitrophenol and diisopropyl carbodiimide in pyridine to give the p-nitrophenyl ester 7 (86%). Brief treatment of 7 with formic acid gave the corresponding alcohol 8, which was used directly in the next step, because of its sensitivity to self-condensation. Reaction of crude 8 at 0° C. in acetonitril with first an excess of phosphorous oxychloride and triethylamine, then water gave the desired monophosphate 9 in 22% yield from 7, after HPLC purification. […]
smiles,measurement,value
"C[N+](C)(CCCCCC(=O)Oc1ccc([N+](=O)[O-])cc1)CCOP(=O)([O-])O [Peptide 9, 6-(N,N-Dimethylamino)-N-[(2-phosphoryloxy)-ethyl]-hexanoic acid p-nitrophenyl ester]",stability in aqueous solution,stable
